Columns and labels:
PD-L1 expression [1] = assay: PD-L1 promoter-luciferase reporter assay in A549 pGL4.14-PD-L1 cell line; type: cell-based; settings: Homo sapiens, IFNγ (50 ng/ml) inducer, luminometer, read-out: PD-L1 expression inhibition rate in A549 (%)
Experimental: The PD-L1 promoter gene region was inserted into the pGL4.14-[luc2/Hygro] vector (promega, Madison, WI) in the following way to prepare a promoter-reporter construct for measuring gene transcription activity.
After preparing primer including KpnI and Xhol restriction enzyme sites in PD-L1, PCR (polymerase chain reaction) was performed, and promoter region DNA was separated by performing electrophoresis on an agarose gel. The pGL4.14-[1uc2/Hygro] vector containing firefly luciferase as a reporter gene was treated with the same restriction enzyme, and separated by agarose gel electrophoresis and gel extraction. The pure isolated PD-L1 promoter gene region and the pGL4.14-[luc2/Hygro] vector were reacted at 50° C. for 1 hour using in-fusion DNA ligase (Takara), followed by E. coli transformation to prepare a promoter-reporter construct into which the […] promoter was inserted, which was named pGL4.14-PD-L1.
To measure the transcriptional activity of the PD-L1 gene promoter, A549 cells were transiently transfected with the PD-L1 promoter-reporter construct as follows, and then the luciferase activity of the cell extract was measured.
The DNA-lipofectamine complex was prepared according to the manufacturer's protocol using 0.1 μtg of promoter-reporter construct plasmid and Lipofectamine 2000 reagent (Invitrogen). Opti-MEM medium (Invitrogen) was used in the process of forming a complex between DNA and Lipofectamine 2000. A549 cells were prepared at 2.5×10^5 cells per well (1 ml) in a 12-well plate by checking the number of cells immediately before adding the DNA. The DNA-lipofectamine complex was carefully mixed with A549 cells and reacted in an incubator at 37° C. for 6 hours. Thereafter, the medium was changed to search for transfected cells, and PD-L1-transfected A549 cells were found through a luciferase test. This was named A549 pGL4.14-PD-L1 cell line and the experiment was conducted. IFNγ (50 ng/ml) was used as a PD-L1 inducer.
The A549 pGL4.14-PD-L1 cell line was treated with the pyrimido pyrimidinone derivatives of Example at concentrations of 0.1 μM and 1.0 μM, respectively, and PD-L1 expression inhibition was evaluated using a luminometer. For comparison, the same experiment was performed for GS9973 (Entospletinib) known to have PD-L1 expression inhibitory activity.
The inhibition rate of PD-L1 expression was calculated by Equation 1 below. PD-L1 expression inhibition rate (%)=100−[(A/B)×100] [Equation 1]
wherein, A is a value when treated with a drug, and B is a value when not treated with a drug.

[2] = test system: cell surface PD-L1 expression; settings: kinase inhibitor library screening, melanoma; cited from earlier work
melanoma cell = settings: melanoma model; cited from earlier work
PD-L1 expression [3] = settings: melanoma model; cited from earlier work
PD-L1 = assay: Western-blot analysis of PD-L1 in tumors excised from B16F10 mice; design: species or system mouse; settings: tumors extracted from mice after the in vivo test of Experimental Example 2; FIG. 3
Description: After the in vivo tumor inhibition test using compound 1-8 of Experimental Example 2, the PD-L1 expression inhibition effect in tumor cells extracted from mice was confirmed through Western-blot analysis. For comparison, the efficacy of inhibiting PD-L1 expression in tumor cells extracted from the control mice was also confirmed through Western-blot analysis.
Proteins were identified with the ChemiDoc™ imaging system (Bio-rad) using a chemiluminescence (ECL) kit (elpis biotec, EBP-1073).

| Structure (SMILES) | inhibition at 0.1 µM (PD-L1 expression [1]) [%] | inhibition at 1 µM (PD-L1 expression [1]) [%] | other results |
| --- | --- | --- | --- |
| Cc1ncc(NC(=O)c2cccc(C3=NC(C)(C)CO3)c2)cc1N1Cc2cnc(Nc3ccccc3)nc2N(C)C1=O [Compound I-5, 3-(4,4-dimethyl-4,5-dihydrooxazol-2-yl)-N-(6-methyl-5-(1-methyl-2-oxo-7-(phenylamino)-1,2-dihydropyrimido[4,5-d]pyrimidin-3(4H)-yl)pyridin-3-yl)benzamide] | 19.4 | 81.9 |  |
| COc1ncc(NC(=O)c2cccc(C3=NC(C)(C)CO3)c2)cc1N1Cc2cnc(Nc3ccccc3)nc2N(C)C1=O [Compound I-7, 3-(4,4-dimethyl-4,5-dihydrooxazol-2-yl)-N-(6-methoxy-5-(1-methyl-2-oxo-7-(phenylamino)-1,2-dihydropyrimido[4,5-d]pyrimidin-3(4H)-yl)pyridin-3-yl)benzamide] | 13.1 | 85.3 |  |
| CN1C(=O)N(c2cc(NC(=O)c3cccc(C(F)(F)F)c3)cnc2Cl)Cc2cnc(Nc3ccc(O)cc3)nc21 [Compound I-11, N-(6-chloro-5-(7-((4-hydroxyphenyl)amino)-1-methyl-2-oxo-1,2-dihydropyrimido[4,5-d]pyrimidin-3(4H)-yl)pyridin-3-yl)-3-(trifluoromethyl)benzamide] | 65 | 98 |  |
| CN1C(=O)N(c2cc(NC(=O)c3csc(C(C)(C)C)n3)cnc2Cl)Cc2cnc(Nc3ccccc3)nc21 [Compound I-10, 2-(t-butyl)-N-(6-chloro-5-(1-methyl-2-oxo-7-(phenylamino)-1,2-dihydropyrimido[4,5-d]pyrimidin-3(4H)-yl)pyridin-3-yl)thiazole-4-carboxamide] | 67 | 98 |  |
| c1cn2cc(-c3ccc4cn[nH]c4c3)nc(Nc3ccc(N4CCOCC4)cc3)c2n1 [GS9973(Entospletinib), Entospletinib, reference compound] | 10.3 | 47.1 |  |
| Cc1ncc(NC(=O)c2ccc(C3=NC(C)(C)CO3)cc2)cc1N1Cc2cnc(Nc3ccccc3)nc2N(C)C1=O [Compound I-4, 4-(4,4-dimethyl-4,5-dihydrooxazol-2-yl)-N-(6-methyl-5-(1-methyl-2-oxo-7-(phenylamino)-1,2-dihydropyrimido[4,5-d]pyrimidin-3(4H)-yl)pyridin-3-yl)benzamide] | 20.1 | 82.5 |  |
| CNC(=O)c1cc(Oc2ccc(NC(=O)Nc3ccc(Cl)c(C(F)(F)F)c3)c(F)c2)ccn1 [regorafenib] |  |  | reduction of cell surface PD-L1 expression level [2]: more than 50% |
| Cc1ncc(NC(=O)c2cccc(C(F)(F)F)c2)cc1N1Cc2cnc(Nc3ccccc3)nc2N(C)C1=O [Compound I-1, N-(6-methyl-5-(1-methyl-2-oxo-7-(phenylamino)-1,2-dihydropyrimido[4,5-d]pyrimidin-3(4H)-yl)pyridin-3-yl)-3-(trifluoromethyl)benzamide] | 12.8 | 87.1 |  |
| COc1cc(/C=C/C(=O)CC(=O)/C=C/c2ccc(O)c(OC)c2)ccc1O [curcumin] |  |  | melanoma cell growth inhibitory effects (melanoma cell): melanoma cell growth inhibitory effects |
| O=c1cc(-c2ccc(O)cc2)oc2cc(O)cc(O)c12 [apigenin] |  |  | suppression of PD-L1 expression induced by IFN-γ (PD-L1 expression [3]): significantly suppress; melanoma cell growth inhibitory effects (melanoma cell): melanoma cell growth inhibitory effects |
| COc1ncc(NC(=O)c2cccc(C(F)(F)F)c2)cc1N1Cc2cnc(Nc3ccccc3)nc2N(C)C1=O [Compound I-3, N-(6-methoxy-5-(1-methyl-2-oxo-7-(phenylamino)-1,2-dihydropyrimido[4,5-d]pyrimidin-3(4H)-yl)pyridin-3-yl)-3-(trifluoromethyl)benzamide] | 29.3 | 92.5 |  |
| CN1C(=O)N(c2cc(NC(=O)c3cccc(C(C)(C)C)c3)cnc2Cl)Cc2cnc(Nc3ccccc3)nc21 [Compound I-9, 3-(t-butyl)-N-(6-chloro-5-(1-methyl-2-oxo-7-(phenylamino)-1,2-dihydropyrimido[4,5-d]pyrimidin-3(4H)-yl)pyridin-3-yl)benzamide] | 48.8 | 97.2 |  |
| Cc1ncc(NC(=O)c2cccc(C(C)(C)C)c2)cc1N1Cc2cnc(Nc3ccccc3)nc2N(C)C1=O [Compound I-2, 3-(t-butyl)-N-(6-methyl-5-(1-methyl-2-oxo-7-(phenylamino)-1,2-dihydropyrimido[4,5-d]pyrimidin-3(4H)-yl)pyridin-3-yl)benzamide] | 32.6 | 72.5 |  |
| CN1C(=O)N(c2cc(NC(=O)c3cccc(C(F)(F)F)c3)cnc2Cl)Cc2cnc(Nc3ccccc3)nc21 [Compound I-8, N-(6-chloro-5-(1-methyl-2-oxo-7-(phenylamino)-1,2-dihydropyrimido[4,5-d]pyrimidin-3(4H)-yl)pyridin-3-yl)-3-(trifluoromethyl)benzamide] | 60.4 | 97.5 | expression of PD-L1 in tumor compared to the control group (Western blot) (PD-L1): reduced |
| COc1ncc(NC(=O)c2cccc(C(C)(C)C)c2)cc1N1Cc2cnc(Nc3ccccc3)nc2N(C)C1=O [Compound I-6, 3-(t-butyl)-N-(6-methoxy-5-(1-methyl-2-oxo-7-(phenylamino)-1,2-dihydropyrimido[4,5-d]pyrimidin-3(4H)-yl)pyridin-3-yl)benzamide] | 13.9 | 94.1 |  |

— US12590098B2, “Pyrimido pyrimidinone compound and pharmaceutical composition comprising the same” (AXCESO BIOPHARMA CO., LTD., priority 2020, dated 2026)
